Calls of active or inactive are those of the source. How the calls were made is not given here.
test system: not listed separately; experiment: late-stage follow-up, counter-screen for PhoP regulon inhibitor project, purified and synthesized compounds, set 5 (AID 463174); conditions: S. Typhi promoter-GFP counter-screen, fluorescence, 4 h; at 150 µM (top of the series)

Row | SMILES | inhibition
1 | Cc1ccc(C2Sc3ccccc3N=C3c4ccccc4CC32)cc1 (stereo unspecified) | -45.3% (inactive)
2 | Clc1ccc(C2Sc3ccccc3N=C3c4ccccc4CC32)cc1 (stereo unspecified) | -48.2% (inactive)
3 | O=C1C2=C(Nc3ccccc3SC2c2cccc(Br)c2)c2ccccc21 (stereo unspecified) | -12.6% (inactive)
4 | O=C1C2=C(Nc3ccccc3SC2c2cccnc2)c2ccccc21 (stereo unspecified) | -32.9% (inactive)
5 | COc1cccc(NC(=O)N2CCCN(Cc3ccccc3F)C2)c1 | -3.56% (inactive)

test system: S. Typhi promoter-GFP counter-screen, fluorescence, 4 h; experiment: as above; conditions: not given

Row | SMILES | IC50
6 | O=C1C2=C(Nc3ccccc3SC2c2ccc(Cl)cc2)c2ccccc21 (stereo unspecified) | 89.6 µM

Reference: PubChem BioAssay AID463174 (Southern Research Specialized Biocontainment Screening …, 2010)
